Assays:
human Nav1.7 channels = molecular target: T1, human Nav1.7 channels (Homo sapiens, UniProt Q15858); assay: Whole-cell patch clamp, use-dependent block of sodium current, drug applied intracellularly or externally; format: cell-based; conditions: for effect on sodium current when applied externally versus inside the cell: same protocol, applied outside the cell
T1 construct: expressed in transfected cells
Procedure: Whole-cell recordings were made of currents carried by voltage-activated channels in HEK293 cells stably expressing human Nav1.7 channels. Recordings were made using patch pipettes with resistances of 2-3.5 MQ when filled with internal solution, consisting of 61 mM CsF, 61 mM CsCl, 9 mM NaCl, 1.8 mM MgCl2, 9 mM EGTA, 14 mM creatine phosphate (tris salt), 4 mM MgATP, and 0.3 mM GTP (tris salt), 9 mM HEPES, pH adjusted to 7.2 with CsOH. The shank of the electrode was wrapped with Parafilm in order to reduce capacitance and allow optimal series resistance compensation without oscillation. Seals were obtained and the whole-cell configuration established with cells in Tyrode's solution (155 mM NaCl, 3.5 mM KCl, 1.5 mM CaCl2), 1 mM MgCl2, 10 mM HEPES, 10 mM glucose, pH adjusted to 7.4 with NaOH) with 10 mM TEACl. To ensure complete dialysis with pipette solution, recordings began after 5 to 10 min after establishment of the whole-cell configuration.
Currents were recorded at room temperature (21-23° C.) with an Axopatch 200 amplifier and filtered at 5 kHz with a low-pass Bessel filter. The amplifier was tuned for partial compensation of series resistance (typically 70-80% of a total series resistance of 4-10 MO). Currents were digitized using a Digidata 1322A data acquisition interface controlled by pClamp9.2 software (Axon Instruments) and analyzed using programs written in Igor Pro 4.0 (Wavemetrics, Lake Oswego, Oreg.). Currents were corrected for linear capacitative and leak currents determined using 5 mV hyperpolarizations delivered from the resting potential (usually −80 or −100 mV) and then appropriately scaled and subtracted.
Sodium currents were evoked by 30-msec depolarizations from −100 mV to −20 mV. To assay use-dependent block, pulses were delivered at series of increasing rates: 0.05 Hz for 1-min, 0.33 Hz for 1-min, 1 Hz for 1-min, 3 Hz for 1-min, 5 Hz for 30 seconds, 10 Hz for 30 seconds, with 1 minute rest between each series of pulses. After the series of pulses to induce use-dependent block, the time course of recovery was followed using pulses delivered at 01. Hz (2-min) and 0.05 Hz (1-min).
To induce use-dependent block, the depolarizations were delivered by series of increasing rates: 0.05 Hz for 1-min, 0.33 Hz for 1-min, 1 Hz for 1-min, 3 Hz for 1-min, 5 Hz for 30 seconds, 10 Hz for 30 seconds, with 1 minute rest between each series of pulses. After the series of pulses to induce use-dependent block, the time course of recovery was followed using pulses delivered at 01. Hz (2-min) and 0.05 Hz (1-min). Peak sodium current was plotted as a function of experimental time (1-min per division on the time axis).

[1] = tested on: CFA-induced thermal hyperalgesia; assay: CFA-induced thermal hyperalgesia (Hargreaves radiant heat, hind paw); format: in vivo; conditions: mice, intraplantar co-injection with CFA, 1%
Procedure: FIGS. 2A-2D show reversal of CFA-induced thermal hyperalgesia by charged sodium channel blockers. FIGS. 2A and 2C show time course (0, 1, 6, and 24 hours) of changes in thermal nociceptive sensitivity measured as response latency (seconds) to a constant radiant heat source applied to the plantar surface of hind paw in mice co-treated with 20 μL (injected in the left hindpaw) of CFA (50% emulsion) and saline, and when the CFA was co-applied with QX-314 (1%, hollow square), N-ethyl etidocaine (Compound 21, 1%; dark square), or ACS8180-3B (Compound 3, 1%; solid triangle). FIGS. 2B and 2D show the nociceptive heat pain response time before CFA treatment and after treatment with the different compounds 1 hour post CFA injection. The data are means±SEM of 8-16 mice per group. The statistical comparison with pre-CFA (*) and with CFA+Vehicle (+) is indicated by +P<0.05; ++P<0.01 and +++,*** P<0.001. All procedures were approved by the Institutional Animal Care and Use Committees. Mice and rats were housed in standard environmental conditions (12-h light/dark cycle; 23° C.; food and water ad libitum) at facilities accredited by the Association for Assessment and Accreditation of Laboratory Animal Care. 8-week old male BALB/c (stock number: 001026) and C57BL/6J (stock number 000664) mice were purchased from Jackson Laboratory and respectively used in allergic airway inflammation (FIG. 5) and pain hypersensitivity model (FIGS. 2A-2D). 6-week old male Sprague-Dawley (stock number: 400) rats, 150±25 grams, were purchased from Charles River laboratory and used to assess pain hypersensitivity (FIG. 3). The compounds were injected in the plantar surface of each animal's right hind paw in 10 μl (mice) or 50 μl (rats) volume of 1:1 emulsion of Complete Freund's Adjuvant (CFA). […] On the 4th day, their thermal nociceptive threshold was evaluated. […] Impact of treatment was analyzed 1 h prior and 1, 3, 6 and 24 h post-treatment. […] With each reading the apparatus was set with a cut-off time of 32 s.

[2] = tested on: thermal nociceptive threshold; assay: Thermal nociceptive threshold after acute intraplantar injection in naive animals; format: in vivo, rats; conditions: naïve animals

T1 sequence (Q15858 whole entry): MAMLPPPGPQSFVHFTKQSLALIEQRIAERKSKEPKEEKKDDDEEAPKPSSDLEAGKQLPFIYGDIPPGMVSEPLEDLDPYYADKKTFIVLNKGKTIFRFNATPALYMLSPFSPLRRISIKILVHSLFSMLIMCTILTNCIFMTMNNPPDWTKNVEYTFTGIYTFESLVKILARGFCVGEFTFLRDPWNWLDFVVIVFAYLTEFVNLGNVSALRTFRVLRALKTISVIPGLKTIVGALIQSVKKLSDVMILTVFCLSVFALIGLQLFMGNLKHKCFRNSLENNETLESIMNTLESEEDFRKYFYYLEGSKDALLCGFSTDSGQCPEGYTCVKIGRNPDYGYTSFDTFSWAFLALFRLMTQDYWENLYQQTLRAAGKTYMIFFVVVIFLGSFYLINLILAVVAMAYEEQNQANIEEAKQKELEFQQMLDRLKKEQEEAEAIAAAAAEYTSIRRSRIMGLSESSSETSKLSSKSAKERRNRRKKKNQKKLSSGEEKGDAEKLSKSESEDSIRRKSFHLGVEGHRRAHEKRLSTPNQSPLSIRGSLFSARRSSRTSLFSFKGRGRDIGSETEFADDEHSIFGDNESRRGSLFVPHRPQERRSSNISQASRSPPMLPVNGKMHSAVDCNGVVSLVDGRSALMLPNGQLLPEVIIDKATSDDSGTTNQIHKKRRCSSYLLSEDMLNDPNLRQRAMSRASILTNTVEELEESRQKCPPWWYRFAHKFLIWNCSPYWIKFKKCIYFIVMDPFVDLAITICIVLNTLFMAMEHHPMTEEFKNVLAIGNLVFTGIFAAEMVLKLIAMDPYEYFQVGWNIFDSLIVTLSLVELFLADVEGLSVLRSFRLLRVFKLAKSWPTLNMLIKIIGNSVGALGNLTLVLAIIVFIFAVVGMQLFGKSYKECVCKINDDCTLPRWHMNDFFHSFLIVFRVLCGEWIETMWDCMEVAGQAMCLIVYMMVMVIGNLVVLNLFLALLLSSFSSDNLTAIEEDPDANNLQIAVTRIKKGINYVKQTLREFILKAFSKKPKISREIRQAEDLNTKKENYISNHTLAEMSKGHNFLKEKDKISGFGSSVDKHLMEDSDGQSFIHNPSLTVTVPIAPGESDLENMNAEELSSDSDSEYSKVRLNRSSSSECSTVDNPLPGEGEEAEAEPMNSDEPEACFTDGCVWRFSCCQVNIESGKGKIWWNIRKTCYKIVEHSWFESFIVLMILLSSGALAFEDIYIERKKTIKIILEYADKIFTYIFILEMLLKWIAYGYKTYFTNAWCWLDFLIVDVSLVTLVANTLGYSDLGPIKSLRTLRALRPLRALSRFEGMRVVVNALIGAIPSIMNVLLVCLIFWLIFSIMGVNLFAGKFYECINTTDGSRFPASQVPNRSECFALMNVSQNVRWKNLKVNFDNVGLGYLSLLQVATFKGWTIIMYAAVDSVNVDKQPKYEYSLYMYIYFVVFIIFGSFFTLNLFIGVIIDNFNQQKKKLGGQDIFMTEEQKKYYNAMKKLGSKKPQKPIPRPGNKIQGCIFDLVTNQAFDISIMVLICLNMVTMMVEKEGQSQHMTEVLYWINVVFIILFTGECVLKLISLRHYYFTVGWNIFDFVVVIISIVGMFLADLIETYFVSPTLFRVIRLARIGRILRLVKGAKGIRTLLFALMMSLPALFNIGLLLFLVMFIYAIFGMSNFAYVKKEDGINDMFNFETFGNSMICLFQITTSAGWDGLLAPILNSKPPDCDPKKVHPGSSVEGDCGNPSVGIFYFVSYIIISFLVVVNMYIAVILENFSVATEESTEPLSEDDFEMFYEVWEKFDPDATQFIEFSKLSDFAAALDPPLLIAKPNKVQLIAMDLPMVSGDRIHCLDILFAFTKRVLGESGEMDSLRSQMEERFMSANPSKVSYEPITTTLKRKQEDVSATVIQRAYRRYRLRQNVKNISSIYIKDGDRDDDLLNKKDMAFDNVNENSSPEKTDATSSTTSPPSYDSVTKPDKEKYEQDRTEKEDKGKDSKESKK

| inhibition at 100 µM (human Nav1.7 channels) [%] | SMILES | other results |
| --- | --- | --- |
| 40 | Cc1cccc(C)c1NC(=O)C(C)[N+]1(C)CCCC1 (stereo not shown) [Compound 1, 1-(1-(2,6-dimethylphenylamino)-1-oxopropan-2-yl)-1-methylpyrrolidinium Chloride] | – |
| 42 | Cc1cccc(C)c1NC(=O)C(C)(C)[N+]1(C)CCCC1 [Compound 2, 1-(1-(2,6-dimethylphenylamino)-2-methyl-1-oxopropan-2-yl)-1-methylpyrrolidinium Chloride] | – |
| 43 | Cc1cccc(C)c1NC(=O)C(C)[N+]1(C)CCCCC1 (stereo not shown) [Compound 4, 1-(1-(2,6-dimethylphenylamino)-1-oxopropan-2-yl)-1-methylpiperidinium Chloride] | – |
| 34 | Cc1cccc(C)c1NC(=O)C(C)(C)[N+]1(C)CCCCC1 [Compound 5, 1-(1-(2,6-dimethylphenylamino)-2-methyl-1-oxopropan-2-yl)-1-methylpiperidinium Chloride] | – |
| 83 | CCC(C(=O)Nc1c(C)cccc1C)[N+]1(CC)CCCCC1 (stereo not shown) [Compound 6, 1-(1-(2,6-dimethylphenylamino)-1-oxobutan-2-yl)-1-ethylpiperidinium] | use dependent accumulation of block (human Nav1.7 channels; 100 micromolar inside cell, stimulation frequencies from 1 to 10 Hz): strong use dependent accumulation of block; effect on sodium current when applied externally versus inside the cell (human Nav1.7 channels): far more effective when applied inside the cell; effect on sodium current when applied externally versus inside the cell (human Nav1.7 channels; listed as compound 6): very little effect |
| 33 | Cc1cccc(C)c1NC(=O)C1CCC[N+]1(C)C (stereo not shown) [Compound 13, 2-(2,6-dimethylphenylcarbamoyl)-1,1-dimethylpyrrolidinium Chloride] | – |
| 62 | CC[N+]1(CC)CCCC1C(=O)Nc1c(C)cccc1C (stereo not shown) [Compound 14, 2-(2,6-dimethylphenylcarbamoyl)-1,1-diethylpyrrolidinium Chloride] | – |
| 40 | CC[N+]1(CC)CCCCC1C(=O)Nc1c(C)cccc1C (stereo not shown) [Compound 15, 2-(2,6-dimethylphenylcarbamoyl)-1,1-diethylpiperidinium Chloride] | – |
| 70 | Cc1cc(F)cc(C)c1NC(=O)C1CCCC[N+]1(C)C (stereo not shown) [Compound 16, 2-(4-fluoro-2,6-dimethylphenylcarbamoyl)-1,1-dimethylpiperidinium Chloride] | – |
| 0 | CC[N+](CC)(CC)CC(=O)Nc1ccc(N)cc1 [Compound 22, 2-(4-aminophenylamino)-N,N,N-triethyl-2-oxoethanaminium] | – |
| 15 | CC[N+](CC)(CC)CCC(=O)Nc1c(C)cccc1C [Compound 24, 3-(2,6-dimethylphenylamino)-N,N,N-triethyl-3-oxopropan-1-aminium Chloride] | – |
| 3 | CC[N+](CC)(CC)CCNC(=O)c1c(C)cccc1C [Compound 25] | – |

| SMILES | inhibition at 100 µM (human Nav1.7 channels) [%] | other results |
| --- | --- | --- |
| CCC(C(=O)Nc1c(C)cccc1C)[N+]1(CC)CCCC1 (stereo not shown) [Compound 3, 1-(1-(2,6-dimethylphenylamino)-1-oxobutan-2-yl)-1-ethylpyrrolidinium Chloride] | 78 | reversal of CFA-induced thermal hyperalgesia [1]: potent blockade; long lasting analgesia in naïve animals [2]: without long lasting analgesia |
| CC[N+](CC)(CC)CC(=O)Nc1c(C)cc(N)cc1C [Compound 23, 2-(4-amino-2,6-dimethylphenylamino)-N, N, N-triethyl-2-oxoethanaminium Chloride] | 56 | – |

Source: US20200377459A1, “CHARGED ION CHANNEL BLOCKERS AND METHODS FOR USE” (President and Fellows of Harvard College, priority 2015, published 2020)
